Reference: ChEMBL document CHEMBL1136837, “Unified QSAR approach to antimicrobials. 4. Multi-target QSAR modeling and comparative multi-distance study of the giant components of antiviral drug-drug complex networks” (Bioorg Med Chem, 2009)

Legend:
Human betaherpesvirus 5 = test: Antiviral activity against Human cytomegalovirus; assay type: functional, organism-based
Human alphaherpesvirus 3 = test: Antiviral activity against Varicella zoster virus; assay type: functional, organism-based
Vaccinia virus = test: Antiviral activity against Vaccinia virus; assay type: functional, organism-based, Orthopoxvirus vaccinia; conditions: Orthopoxvirus vaccinia
Human alphaherpesvirus 2 = test: Antiviral activity against Herpes simplex virus 2; assay type: functional, organism-based; conditions: Human alphaherpesvirus 2
[1] = tested on: unidentified influenza virus; test: Antiviral activity against influenza virus; assay type: functional, organism-based
[2] = tested on: Human immunodeficiency virus 1; test: Antiviral activity against HIV1; assay type: functional, organism-based
Human alphaherpesvirus 1 = test: Antiviral activity against Herpes simplex virus 1; assay type: functional, organism-based; conditions: Human alphaherpesvirus 1
Hepatitis B virus = test: Antiviral activity against Hepatitis B virus; assay type: functional, organism-based

Nc1nc(N)c(Br)c(OCCOCP(=O)(O)O)n1
IC50 (Human betaherpesvirus 5; Human betaherpesvirus 5): 0.00015 µM
IC50 (Human alphaherpesvirus 3): 0.15 nM
IC50 (Vaccinia virus): 0.0007 µM
IC50 (Human alphaherpesvirus 2): 0.0007 µM

CC(C)/C=C1\N=C(CC(C)C)C(=O)N(O)C1=O
IC50 [1]: 5.5 µM

CC(C)OC(=O)OCOP(=O)(CO[C@H](C)Cn1cnc2c(N)ncnc21)OCOC(=O)OC(C)C [TENOFOVIR DISOPROXIL]
IC50 (Vaccinia virus): 157 µM

N#Cc1c(Cl)n([C@@H]2O[C@H](CN=[N+]=[N-])[C@@H](O)[C@H]2O)c2cc(Cl)c(Cl)cc12
IC50 (Human betaherpesvirus 5; Human betaherpesvirus 5): 3 µM
IC50 [2]: 15 µM

CCOC(=O)Cc1c(N)nc(N)n(CCOCP(=O)(O)O)c1=O
IC50 (Human betaherpesvirus 5; Human betaherpesvirus 5): 0.00015 µM
IC50 (Human alphaherpesvirus 3): 0.15 nM
IC50 (Vaccinia virus): 0.0012 µM
IC50 [2]: 0.0003 µM
IC50 (Human alphaherpesvirus 2): 0.0012 µM
IC50 (Human alphaherpesvirus 1): 0.0012 µM

CC(NP1(=O)CO[C@@H](Cn2ccc(N)nc2=O)CO1)C(=O)OCCc1ccccc1 (some centres undefined)
IC50 (Vaccinia virus): 7.1 µM

CCc1ccc(Sc2nc(N)nc3c2ncn3CCOCP(=O)(OCC(F)(F)F)OCC(F)(F)F)cc1
IC50 (Hepatitis B virus): 0.4 µM

Cc1nn([C@H]2C[C@H](O)[C@@H](CO)S2)c(=O)nc1O
IC50 (Human betaherpesvirus 5; Human betaherpesvirus 5): 200 µM
IC50 (Human alphaherpesvirus 3): 5000 nM
IC50 (Vaccinia virus): 2.2 µM
IC50 (Human alphaherpesvirus 2): 3.3 µM
IC50 (Human alphaherpesvirus 1): 18 µM

O=C(O)/C=C/C(=O)c1ccccc1
IC50 [1]: 500 µM

O=c1[nH]c(=O)n([C@H]2C[C@H](O)[C@]3(CO)C[C@H]23)cc1I
IC50 (Human alphaherpesvirus 2): 9.06 µM
IC50 (Human alphaherpesvirus 1): 275 µM

CC(=O)Nc1nc(C)c(S(=O)(=O)Nc2ccc(C(=O)Nc3ccc4c(c3)N(O)C(=O)/C4=C(\O)c3ccccc3)cc2)s1
IC50 [1]: 32 µM

Cc1c(N)nc(N)nc1OCCOCP(=O)(O)O
IC50 (Human betaherpesvirus 5; Human betaherpesvirus 5): 0.00072 µM
IC50 (Human alphaherpesvirus 3): 0.018 nM
IC50 (Vaccinia virus): 0.00086 µM
IC50 (Human alphaherpesvirus 2): 0.0012 µM
IC50 (Human alphaherpesvirus 1): 0.0012 µM

Nc1nc(Sc2ccccc2)c2ncn(CCOCP(=O)(OCC(F)(F)F)OCC(F)(F)F)c2n1
IC50 (Hepatitis B virus): 0.05 µM

Nc1nc(N)c(Cl)c(OCCOCP(=O)(O)O)n1
IC50 (Vaccinia virus): 0.0012 µM
IC50 (Human alphaherpesvirus 2): 0.0012 µM

O=c1[nH]c(=O)n([C@H]2C[C@H](O)[C@]3(CO)C[C@H]23)cc1Br
IC50 (Human alphaherpesvirus 2): 2.2 µM
IC50 (Human alphaherpesvirus 1): 1.23 µM

O=C(Nc1ccc2c(c1)N(O)C(=O)/C2=C(\O)c1ccccc1)c1ccc(NC(=O)c2cccs2)cc1
IC50 [1]: 20 µM

Cc1cn(/C=C2/CC2(CO)CO)c(=O)[nH]c1=O
IC50 (Human betaherpesvirus 5; Human betaherpesvirus 5): 420 µM
IC50 (Human alphaherpesvirus 3): 420000 nM
IC50 (Human alphaherpesvirus 2): 420 µM
IC50 (Human alphaherpesvirus 1): 420 µM

COc1ccccc1/C(Br)=C(\NC(=O)c1ccc([N+](=O)[O-])cc1)C(=O)N1CCCCC1
IC50 (Hepatitis B virus): 2.4 µM

O=C(O)/C(O)=C/C(=O)c1ccc(C2CCCCC2)cc1
IC50 [1]: 5 µM

Nc1nc2c(ncn2COCCO)c(=O)[nH]1 [ACYCLOVIR]
IC50 (Vaccinia virus): 0.384 µM

CCc1nn([C@H]2C[C@H](O)[C@@H](CO)S2)c(=O)nc1O
IC50 (Human betaherpesvirus 5; Human betaherpesvirus 5): 40 µM
IC50 (Human alphaherpesvirus 3): 40000 nM
IC50 (Vaccinia virus): 200 µM
IC50 (Human alphaherpesvirus 2): 200 µM
IC50 (Human alphaherpesvirus 1): 120 µM

CCC(=O)c1c(O)n(O)c2cc(NC(=O)Nc3ccccc3Cl)ccc12
IC50 [1]: 50 µM

COc1c(C=O)c2cc(Cl)c(Cl)cc2n1[C@H]1C[C@H](O)[C@@H](CO)O1
IC50 (Human betaherpesvirus 5; Human betaherpesvirus 5): 100 µM
IC50 [2]: 100 µM

O=c1[nH]c2nccnc2c(=O)n1O
IC50 [1]: 95 µM

Cc1cn([C@H]2C[C@H](O)[C@]3(CO)C[C@H]23)c(=O)[nH]c1=O [(NORTH)-METHANOCARBATHYMIDINE]
IC50 (Human alphaherpesvirus 1): 0.12 µM

CC(=O)c1c(O)n(O)c2cc(NC(=O)Nc3cccc(C(=O)O)c3)ccc12
IC50 [1]: 14 µM

COc1c(C#N)c2cc(Cl)c(Cl)cc2n1[C@H]1C[C@H](O)[C@@H](CO)O1
IC50 (Human betaherpesvirus 5; Human betaherpesvirus 5): 68 µM
IC50 [2]: 90 µM

O=C(Nc1ccc2c(C(=O)c3ccccc3)c(O)n(O)c2c1)NC1CCCCC1
IC50 [1]: 50 µM

CCC(=O)c1c(O)n(O)c2cc(NC(=O)c3ccc(Cl)cc3Cl)ccc12
IC50 [1]: 45 µM

C[C@@H]1C(=O)N(C(=O)C2CC2)[C@H]2CCN(C(=O)[C@@H]3CCCN3C(=O)c3ccc(Cl)cc3)[C@H]12
IC50 (Human betaherpesvirus 5; Human betaherpesvirus 5): 1.4 µM

CCCOc1ccc(Sc2nc(N)nc3c2ncn3CCOCP(=O)(OCC(F)(F)F)OCC(F)(F)F)cc1
IC50 (Hepatitis B virus): 0.87 µM

O=C(/C=C/c1ccccc1Cl)Nc1ccc(C(=O)Nc2ccc3c(c2)N(O)C(=O)/C3=C(\O)c2ccccc2)cc1
IC50 [1]: 9.5 µM

CC(=O)c1c(O)n(O)c2cc(NC(=O)c3ccc4ccccc4c3)ccc12
IC50 [1]: 9 µM

CC(C)CC1=N/C(=C\c2ccc(F)cc2)C(=O)NC1=O
IC50 [1]: 365 µM

CCCCCCCCCCCCCCCCCCOCCCOP(=O)(O)CO[C@H](CO)Cn1ccc(N)nc1=O
IC50 (Human betaherpesvirus 5; Human betaherpesvirus 5): 3e-05 µM

Cc1ccccc1Sc1nc(N)nc2c1ncn2CCOCP(=O)(OCC(F)(F)F)OCC(F)(F)F
IC50 (Hepatitis B virus): 0.08 µM

NC(=O)/C(O)=C/C(=O)C1CCCCC1
IC50 [1]: 500 µM

NN1C(=O)Cc2ccccc2C1=O
IC50 [1]: 800 µM

CCOc1ccc(Sc2nc(N)nc3c2ncn3CCOCP(=O)(OCC(F)(F)F)OCC(F)(F)F)cc1
IC50 (Hepatitis B virus): 0.64 µM

O=C1Cc2ccccc2CC(=O)N1O
IC50 [1]: 1000 µM

Nc1nc(NC2CC2)cc(=O)n1CCOCP(=O)(O)O
IC50 (Human alphaherpesvirus 3): 0.164 nM
IC50 [2]: 0.000329 µM
IC50 (Human alphaherpesvirus 2): 5.26e-05 µM
IC50 (Human alphaherpesvirus 1): 5.26e-05 µM

C[C@@H]1C(=O)N(C(=O)C2CC2)[C@H]2CCN(C(=O)[C@@H]3CCCN3S(=O)(=O)c3ccc(Cl)cc3)[C@H]12 (stereo in doubt; form 2)
IC50 (Human betaherpesvirus 5): 0.84 µM
